Measured values: ChEMBL document CHEMBL4406908, “Identification of neomacrophorins isolated from Trichoderma sp. 1212-03 as proteasome inhibitors” (Bioorg Med Chem, 2019)
pIC50: −log10 of the molar value. Activity calls are given as the source filed them. No cut-off for these calls is given here.

What was measured:
HL-60 [1] = experiment: Induction of apoptosis in human HL60 cells assessed as increase in cleavage of caspase 3 incubated for 4 hrs by Western blot analysis; format: functional, cell-based
[2] = Binding affinity to NAC methyl ester in PBS-MeOH (7:3) solution assessed as methyl 4-[[(1R,6S)-6-[[(1S,4aR,6R,8aR)-6-hydroxy-5,5,8a-trimethyl-2-methylene-decalin-1-yl]methyl]-3-[(2-acetamido-3-methoxy-3-oxo-propyl)sulfanylmethyl]-2,5-dioxo-7-oxabicyclo[4.1.0]heptan-4-yl]sulfanyl]-3-acetamido-butanoate formation at 1 mM by HPLC analysis
[3] = Binding affinity to NAC methyl ester in PBS-MeOH (7:3) solution at 1 mM by ESI/LC-MS analysis
[4] = Binding affinity to NAC methyl ester in PBS-MeOH (7:3) solution assessed as methyl 3-[[(1R,6S)-6-[[(1S,4aR,6R,8aR)-6-hydroxy-5,5,8a-trimethyl-2-methylene-decalin-1-yl]methyl]-2,5-dioxo-7-oxabicyclo[4.1.0]hept-3-en-3-yl]methylsulfanyl]-2-acetamido-propanoate formation at 1 mM by HPLC analysis
COLO 201 = experiment: Cytotoxicity against human COLO201 cells; format: functional, cell-based
HL-60 [5] = experiment: Inhibition of proteasome in human HL60 cells assessed as increase in accumulation of ubiquitinated proteins at 1.25 to 5 uM incubated for 4 hrs by Western blot analysis; format: functional, cell-based
HL-60 [6] = experiment: Induction of apoptosis in human HL60 cells assessed as caspase 3 cleavage at 5 uM incubated for 4 hrs in presence of 5 mM nucleophile, NAC by Western blot analysis; format: functional, cell-based
HL-60 [7] = experiment: Antiproliferative activity against human HL60 cells assessed as cell viability at 5 to 10 uM incubated for 48 hrs in presence of 5 mM nucleophile, NAC by trypan blue dye exclusion assay; format: functional, cell-based
HL-60 [8] = experiment: Induction of apoptosis in human HL60 cells assessed as increase in DNA fragmentation incubated for 4 hrs by ethidium bromide staining based agarose gel electrophoresis method; format: functional, cell-based
HL-60 [9] = experiment: Induction of apoptosis in human HL60 cells assessed as ROS generation; format: functional, cell-based
[10] = Binding affinity to NAC methyl ester assessed as methyl 3-[[(1R,6S)-6-[[(1S,4aR,6R,8aR)-6-hydroxy-5,5,8a-trimethyl-2-methylene-decalin-1-yl]methyl]-2,5-dioxo-7-oxabicyclo[4.1.0]hept-3-en-3-yl]methylsulfanyl]-2-acetamido-propanoate formation by UV spectra analysis
[11] = Binding affinity to NAC methyl ester in PBS-MeOH (7:3) solution assessed as disappearance of peak regarding parent compound at 1 mM measured within 1 min by HPLC analysis
[12] = target: T1, Proteasome Macropain subunit MB1 (Homo sapiens) (UniProt P28074); experiment: (§1) Inhibition of chymotrypsin-like activity of beta5 subunit of 20S proteasome in human erythrocytes using Suc-LLVY-MCA as substrate preincubated with enzyme for 10 mins followed by substrate addition and measured after 3 hrs by fluorescence spectrophotometric analysis
T1 sequence (whole entry): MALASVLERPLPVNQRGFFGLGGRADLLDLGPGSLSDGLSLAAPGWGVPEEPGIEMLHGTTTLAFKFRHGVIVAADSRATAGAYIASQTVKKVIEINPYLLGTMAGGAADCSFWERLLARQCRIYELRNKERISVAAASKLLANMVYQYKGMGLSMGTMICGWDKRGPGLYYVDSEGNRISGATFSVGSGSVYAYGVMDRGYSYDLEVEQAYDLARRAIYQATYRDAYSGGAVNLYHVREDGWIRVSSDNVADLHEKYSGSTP

[13] = target: T2, Proteasome Macropain subunit MB1 (Homo sapiens, UniProt P28074); experiment: as §1
T2 sequence (P28074 whole entry): T1 sequence (whole entry)

Proteasome = experiment: Inhibition of proteasome in human HL60 cells assessed as accumulation of ubiquitinated proteins at 5 uM incubated for 4 hrs in presence of 5 mM nucleophile, NAC by Western blot analysis; format: subcellular
HL-60 [14] = experiment: Antiproliferative activity against human HL60 cells assessed as cell growth inhibition incubated for 2 days by MTT assay; format: functional, cell-based; conditions: HL-60, 48 h
[15] = target: Proteasome Macropain subunit (Homo sapiens) (UniProt P49721); experiment: Inhibition of trypsin-like activity of beta2 subunit of 20S proteasome in human erythrocytes using Boc-LRR-MCA as substrate preincubated with enzyme for 10 mins followed by substrate addition and measured after 3 hrs by fluorescence spectrophotometric analysis; format: cell-based
[16] = target: T3, Proteasome component C5 (Homo sapiens) (UniProt P20618); experiment: Inhibition of caspase-like activity of beta1 subunit of 20S proteasome in human erythrocytes using Z-LLE-MCA as substrate preincubated with enzyme for 10 mins followed by substrate addition and measured after 3 hrs by fluorescence spectrophotometeric analysis
T3 sequence (whole entry): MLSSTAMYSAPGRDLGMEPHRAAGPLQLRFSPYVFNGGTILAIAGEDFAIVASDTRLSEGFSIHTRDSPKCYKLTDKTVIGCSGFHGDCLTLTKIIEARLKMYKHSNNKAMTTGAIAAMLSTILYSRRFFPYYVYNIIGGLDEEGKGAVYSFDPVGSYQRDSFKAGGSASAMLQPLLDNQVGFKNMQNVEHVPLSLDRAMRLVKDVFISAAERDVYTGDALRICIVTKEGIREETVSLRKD

HL-60 [17] = experiment: Induction of apoptosis in human HL60 cells assessed as DNA fragmentation at 5 uM preincubated with 50 uM pan caspase inhibitor, z-VAD-FMK for 1 hr followed by incubation with compound for 4 hrs by ethidium bromide staining based agarose gel electrophoresis method; format: functional, cell-based
HL-60 [18] = experiment: Inhibition of proteasome in human HL60 cells assessed as increase in accumulation of ubiquitinated proteins at 12.5 to 50 uM incubated for 4 hrs by Western blot analysis; format: functional, cell-based
HL-60 [19] = experiment: Induction of apoptosis in human HL60 cells assessed as DNA fragmentation at 50 uM preincubated with 50 uM pan caspase inhibitor, z-VAD-FMK for 1 hr followed by incubation with compound for 4 hrs by ethidium bromide staining based agarose gel electrophoresis method; format: functional, cell-based
[20] = Binding affinity to NAC methyl ester in PBS-MeOH (7:3) solution at 1 mM by HPLC analysis
[21] = target: T3, Proteasome component C5 (Homo sapiens); experiment: Inhibition of caspase-like activity of beta1 subunit of 20S proteasome in human erythrocytes at 100 uM using Z-LLE-MCA as substrate preincubated with enzyme for 10 mins followed by substrate addition and measured after 3 hrs by fluorescence spectrophotometeric analysis
HL-60 [22] = experiment: Inhibition of proteasome in human HL60 cells assessed as accumulation of ubiquitinated proteins at 100 uM incubated for 4 hrs by Western blot analysis; format: functional, cell-based
[23] = target: Proteasome Macropain subunit (Homo sapiens) (UniProt P49721); experiment: Inhibition of trypsin-like activity of beta2 subunit of 20S proteasome in human erythrocytes at 100 uM using Boc-LRR-MCA as substrate preincubated with enzyme for 10 mins followed by substrate addition and measured after 3 hrs by fluorescence spectrophotometric analysis
HL-60 [24] = experiment: Induction of apoptosis in human HL60 cells assessed as DNA fragmentation at 100 uM preincubated with 50 uM pan caspase inhibitor, z-VAD-FMK for 1 hr followed by incubation with compound for 4 hrs by ethidium bromide staining based agarose gel electrophoresis method; format: functional, cell-based
[25] = target: T1, Proteasome Macropain subunit MB1 (Homo sapiens); experiment: Inhibition of chymotrypsin-like activity of beta5 subunit of 20S proteasome in human erythrocytes at 100 uM using Suc-LLVY-MCA as substrate preincubated with enzyme for 10 mins followed by substrate addition and measured after 3 hrs by fluorescence spectrophotometeric analysis
HL-60 [26] = experiment: Antiproliferative activity against human HL60 cells assessed as cell viability at 0.5 to 1 uM incubated for 48 hrs in presence of 5 mM nucleophile, NAC by trypan blue dye exclusion assay; format: functional, cell-based
[27] = Binding affinity to NAC methyl ester in PBS-MeOH (7:3) solution assessed as methyl 3-[[(1R,6S)-6-[[(1S,4aR,6R,8aR)-6-hydroxy-5,5,8a-trimethyl-2-methylene-decalin-1-yl]methyl]-3-(hydroxymethyl)-2,5-dioxo-7-oxabicyclo[4.1.0]heptan-4-yl]sulfanyl]-2-acetamido-propanoate formation at 1 mM by HPLC analysis

Sequence of Proteasome Macropain subunit (Homo sapiens) (P49721 whole entry, the tested form may be a part): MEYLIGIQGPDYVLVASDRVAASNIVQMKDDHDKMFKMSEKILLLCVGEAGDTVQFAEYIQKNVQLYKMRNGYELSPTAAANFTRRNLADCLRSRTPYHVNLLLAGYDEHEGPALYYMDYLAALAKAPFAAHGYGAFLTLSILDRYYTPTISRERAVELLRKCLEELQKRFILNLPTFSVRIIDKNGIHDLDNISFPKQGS

Row | Activity [2] | Activity [3] | Activity [4] | Activity [10] | inhibition [12] | pIC50 [13] | inhibition (Proteasome) | pIC50 (HL-60 [14]) | inhibition [15] | inhibition [16] | SMILES | Activity (HL-60 [1]) | inhibition (HL-60 [5]) | Activity (HL-60 [6]) | Activity (HL-60 [7]) | Activity (HL-60 [8]) | Activity (HL-60 [9]) | Activity (HL-60 [17]) | inhibition (HL-60 [18]) | Activity (HL-60 [19]) | other results
1 | Active | Active | Active | Active | Dose-dependent effect | 5.24 | inactive | 5.59 | Dose-dependent effect | Dose-dependent effect | C=C1CC[C@H]2C(C)(C)[C@H](O)CC[C@]2(C)[C@H]1C[C@]12O[C@H]1C(=O)C(COC(=O)[C@H](O)[C@H](C)O)=CC2=O | Dose-dependent effect | Active | inactive | inactive | Dose-dependent effect | inactive | inactive |  |  | pIC50 (COLO 201): 4.02; Activity [11]: Active
2 | Active | Active | Active | Active | Dose-dependent effect | 5.28 | inactive | 5.89 | Dose-dependent effect | Dose-dependent effect | C=C1CC[C@H]2C(C)(C)[C@H](O)CC[C@]2(C)[C@H]1C[C@]12O[C@H]1C(=O)C(COC(=O)C[C@H](C)O)=CC2=O | Dose-dependent effect | Active | inactive | inactive | Dose-dependent effect | inactive | inactive |  |  | 

Further lines, the compound ahead of its results:

Row | SMILES | Activity [2] | Activity [3] | Activity [4] | Activity [10] | inhibition [12] | pIC50 [13] | inhibition (Proteasome) | pIC50 (HL-60 [14]) | inhibition [15] | inhibition [16] | Activity (HL-60 [1]) | inhibition (HL-60 [5]) | Activity (HL-60 [6]) | Activity (HL-60 [7]) | Activity (HL-60 [8]) | Activity (HL-60 [9]) | Activity (HL-60 [17]) | inhibition (HL-60 [18]) | Activity (HL-60 [19]) | other results
3 | C=C1CC[C@H]2C(C)(C)[C@H](O)CC[C@]2(C)[C@H]1C[C@]12O[C@H]1[C@H](O)C(COC(=O)[C@H](O)[C@H](C)O)=CC2=O |  |  |  |  | Dose-dependent effect | 4.03 |  | 4.67 | Dose-dependent effect | Dose-dependent effect | Dose-dependent effect |  |  |  | Dose-dependent effect | inactive |  | Active | inactive | 
4 | C=C1CC[C@H]2C(C)(C)[C@H](O)CC[C@]2(C)[C@H]1C[C@]12O[C@H]1[C@H](O)C(COC(=O)C[C@H](C)O)=CC2=O |  |  |  |  | Dose-dependent effect | 4.50 |  | 4.82 | Dose-dependent effect | Dose-dependent effect | Dose-dependent effect |  |  |  | Dose-dependent effect | inactive |  | Active | inactive | 
5 | C=C1CC[C@H]2C(C)(C)[C@H](O)CC[C@]2(C)[C@H]1C[C@]12O[C@H]1[C@H](O)C(CO)=CC2=O |  |  |  |  |  | < 4.00 |  | 4.60 |  |  | Dose-dependent effect |  |  |  | Dose-dependent effect | inactive |  |  |  | Activity [20]: inactive; inhibition [21]: inactive; inhibition (HL-60 [22]): inactive; inhibition [23]: inactive; Activity (HL-60 [24]): inactive; inhibition [25]: inactive
6 | C=C1CC[C@H]2C(C)(C)[C@H](O)CC[C@]2(C)[C@H]1C[C@]12O[C@H]1C(=O)C(CO)=CC2=O |  | Active |  |  | Dose-dependent effect | 4.58 | inactive | 6.52 | Dose-dependent effect | Dose-dependent effect | Dose-dependent effect | Active | inactive |  | Dose-dependent effect | inactive | inactive |  |  | inhibition (HL-60 [26]): inactive; Activity [27]: Active
